# Experimental data: US7521540B2, “CYR61 compositions and methods” (Munin Corporation, priority 1996, dated 2009)
# Values joined by “and” are separate entries in the source; they are usually repeats but may differ in a detail not shown here. Equal entries are not always repeated.
# What was measured:
# HUVE cells = assay: HUVE cell attachment to murine Cyr61-coated plates; format: cell-based, human
# Description: Another embodiment of the invention is directed to the use of Cyr61 to mediate cellular attachment to the extracellular matrix. Induction of cellular adhesion was investigated using murine Cyr61, fibronectin, and bovine serum albumin (BSA). Immunological 96-well plates (Falcon brand) were coated with 50 μl of 0.1% BSA in PBS at 4° C. in the presence of 0-30 μg/ml concentrations of murine Cyr61 or fibronectin. After two hours exposure to the coating solution, non-diluted immune or pre-immune antisera (30 μl/well), or affinity-purified anti-Cyr61 antibodies were added. For some wells, the coating mixture was adjusted to 10 mM DTT or 100 mM HCl. After 16 hours incubation, the coating solution was removed and the well surface was blocked with 1% BSA in phosphate-buffered saline (PBS) for 1 hour at room temperature. HUVE cells were plated in Ham's complete F12K medium [GIBCO-BRL, Inc.; Ham, Proc. Natl. Acacd. Sci. (USA) 53:786 (1965)] at 5×10^3-10^4 cells/well. Cycloheximide was added to 100 μg/ml immediately before plating and monensin was added to 1 μM 14 hours before plating. After a 2-hour incubation at 37° C., the wells were washed with PBS and attached cells were fixed and stained with methylene blue. The attachment efficiency was determined by quantitative dye extraction and measurement of the extract absorbance at 650 nm. Oliver et al., J. Cell. Sci. 92:513-518 (1989).
# Limb mesenchymal cells [1] = assay: Limb bud mesenchymal cell attachment; format: cell-based, mouse; conditions: within 1 hour of plating
# Description: Cyr61, fibronectin (Gibco), or tenascin (Gibco) were diluted in 0.1% protease-free bovine serum albumin (BSA) in PBS with 0.5 mM PMSF, to a final concentrations of 10 or 50 μg/ml. A 10 μl drop/well was placed in a non-tissue culture treated 24-well plate (Corning), and incubated at room temperature for 2 hours. The wells were blocked with 1% BSA in PBS for 1 hour at room temperature, and rinsed with serum-free MEM (Modified Eagle's Medium). Limb mesenchymal cells, suspended at 5×10^5 cell/ml in serum-free MEM, were added at a volume of 400 μl/well, and incubated at 37° C., 5% CO2 for 1 or 3 hours. At each time point, the cell suspension was removed, the wells were rinsed with MEM and the remaining adherent cells were photographed.
# [2] = test system: 1064SK primary human foreskin fibroblasts; assay: Fibroblast adhesion assay (methylene blue, A620); format: cell-based
# Description: The ability of Cyr61 to mediate cell adhesion in normal fibroblasts was investigated. Microtiter wells were coated with purified recombinant Cyr61 protein, and 1064SK primary human foreskin fibroblasts were allowed to adhere under serum-free conditions. […] 50 μl cell suspensions were plated on microtiter wells coated with varying concentrations (0.5-5.0 μg/ml) of Cyr61 protein. After incubation at 37° C. for 30 minutes, adherent cells were fixed and stained with methylene blue.
# In another experiment, microtiter wells were coated with either BSA, Cyr61 (2 μg/ml), or vitronectin (VN; 0.5 μg/ml) and blocked with affinity-purified anti-Cyr61 antibodies for one hour at 37° C. before 1064SK cells were plated.
# The effects of divalent cations in cell adhesion to Cyr61 was also investigated. […] Data are means from triplicate determinations. […] Inhibition by Ca^2+ is characteristic of adhesion through some members of the β1 family of integrins, including receptors that bind type I collagen, laminin, and vitronectin (integrins α2β1, α6β1, and αVβ1) in fibroblasts, as well as the lymphocyte-specific integrin αLβ2.
# The effects of RGD peptides on Cyr61-mediated fibroblast binding was tested by plating cells in wells coated with Cyr61 (2 μg/ml). Type I collagen (2 μg/ml) or vitronectin (0.5 μg/ml), 2 mM GRGDSP or GRGESP peptide was then added.
# Cells were also pre-incubated with 40 μg/ml monoclonal antibodies against the integrin α5 or the integrin αV subunits at room temperature for 30 minutes, then plated on wells coated with Cyr61 (2 μg/ml), vitronectin (0.5 μg/ml) or fibronectin (FN, 1 μg/ml). […] The data are means, representative of three experiments.
# The 1064 SK cells were also analyzed using the monoclonal antibody JBIA, which binds the β1 integrin subunit. Cells were pre-incubated with the antibody (50 μg/ml) before plating on microtiter wells coated with Cyr61 (2 μg/ml), Type I collagen (2 μg/ml), or vitronectin (0.5 μg/ml). […] Data are means, representative of three experiments.
# To identify the specific β1 integrin that mediates fibroblast adhesion to Cyr61, the inhibitory effects of function-blocking monoclonal antibodies were tested against various integrin α subunits. […] The data are means, representative of at least three experiments.
# endothelial cells [3] = conditions: thrombospondin on endothelial cells; fibronectin cell type not stated; cited from earlier work
# endothelial cells [4] = assay: Peptide inhibition of cell adhesion to Cyr61, endothelial cells; format: cell-based
# Source text: (§1) To localize the relevant domain still further, several overlapping peptides were synthesized. The peptides, each having a sequence set forth in one of SEQ ID NOS:33-38, show significant similarity to an ECM signaling molecule such as mouse Cyr61 (SEQ ID NO:2) or human Cyr61 (SEQ ID NO:4). These peptides were then separately tested for their capacities to inhibit Cyr61 adhesion to endothelial cells or fibroblasts. Peptides were separately added at various concentrations to Cyr61-coated wells containing endothelial cells or fibroblasts, as described above. The peptide designated TSP1 (SEQ ID NO:33) inhibited Cyr61 adhesion to endothelial cells or fibroblasts at concentrations of 25 μM or higher.
# To determine if TSP1 was selectively inhibiting Cyr61 binding to […] or α6β1, two integrins found on endothelial cells that bind Cyr61, specific monoclonal antibody blocking studies were performed. These studies involved the separate addition of monoclonal antibody GoH3 (α6-specific, including α6β1; see Example 29) or LM609 ([…]; see Example 29) to cells prior to addition of the mixture to Cyr61-coated wells in the presence or absence of the peptide under study.
# fibroblasts [5] = assay: Peptide inhibition of cell adhesion to Cyr61, fibroblasts; format: cell-based; conditions: Cyr61-coated wells
# Source text: as §1
# endothelial cells [6] = assay: Matrigel tubule formation assay; format: cell-based
# Description: Endothelial cells interacting with Cyr61 require integrin αVβ3 for cell migration and cell survival. However, to form tubules in vitro in a matrigel, integrin α6β1 is required. Thus, the ability of TSP1 to inhibit tubule formation in vitro using a matrigel assay as described in Example 15 (and as known in the art, Davis et al., Exp. Cell Research 216:113-123 (1995), incorporated herein by reference in its entirety) was performed.
# endothelial cells [7] = assay: Adhesion to immobilized peptides or GST-domain fusions, endothelial cells; format: cell-based; conditions: no immobilized Cyr61
# Source text: (§2) To further localize domains involved in angiogenesis, including endothelial cell migration, the coding regions for domains I, II and III of Cyr61 were separately fused to a coding sequence for glutathione S-transferase (GST), again using conventional technology. The individual fusion constructs were introduced into bacterial hosts, expressed, and purified with glutathione columns, using conventional techniques.
# (§3) To confirm that the TSP1 peptide was inhibiting Cyr61 activity by directly interacting with the α6β1, integrin, TSP1 and the peptides collectively having SEQ ID NOS:34-38 were used in the aforementioned cell adhesion assay in the absence of immobilized Cyr61. In these assays, wells were coated with one of the peptides and the immobilized peptides were then separately exposed to either endothelial cells (resting or activated) or fibroblasts. […] None of the other tested peptides (having SEQ ID NOS:34-38, collectively) supported cell adhesion in these assays. However, it is expected that peptides comprising sequences from domain II (von Willebrand Factor domain) of Cyr61 will inhibit the interaction between Cyr61 and the αVβ3 integrin receptor, thereby inhibiting the participation of endothelial cells in the process of angiogenesis. […]
# fibroblasts [8] = assay: Adhesion to immobilized peptides or GST-domain fusions, fibroblasts; format: cell-based; conditions: no immobilized Cyr61
# Source text: as §2, §3
# [9] = test system: Bovine aortic smooth muscle cells (BASM cells); assay: Smooth muscle cell adhesion assay; format: cell-based
# Description: Cell adhesion assays were also performed on smooth muscle cells. Bovine aortic smooth muscle cells (BASM cells) were subjected to the cell adhesion assay described above in the context of assaying fibroblasts. […] To identify particular integrin, receptors mediating the Cyr61 induction of BASM cell adhesion, antibody studies were conducted using anti-integrin antibodies recognizing specific integrins. […] Thus, integrin α6β1 mediates Cyr61-induced adhesion of smooth muscle cells. It is expected that Cyr61 polypeptides that include the heparan binding domain IV will induce adhesion of any mammalian smooth muscle cell.
# Limb mesenchymal cells [10] = conditions: 10 μg/ml, literature; cited from earlier work
substance,measurement,setting,value
fibronectin,"HUVE cell attachment, A650",HUVE cells; coating 1 μg/ml,0.1 A650
same,"HUVE cell attachment, A650",HUVE cells; coating 30 μg/ml,0.9 A650
same,attachment morphology of limb mesenchymal cells,Limb mesenchymal cells [1],attached uniformly and started to spread
same,"1064SK adhesion to coated protein, nothing added","[2]; Cyr61 2, VN 0.5, Type I collagen 2, fibronectin 1, laminin 5 μg/ml",0.72 A620 and 0.74 A620
same,concentration with chemotactic effect,endothelial cells [3],1 to 30 µg/mL
H 2N-GQKCIVQTTSWSQCSKS-CO2H (H-GQKCIVQTTSWSQCSKS-OH; cysteine pairing not given here) [TSP1],concentration inhibiting Cyr61 adhesion to endothelial cells,endothelial cells [4]; Cyr61-coated wells,≥ 25 µM
same,effect on Cyr61 binding to the α6β1 integrin,endothelial cells [4]; GoH3/LM609 blocking studies,inhibitied Cyr61 binding to the α6β1 integrin
same,effect on Cyr61 binding to αVβ3,endothelial cells [4]; GoH3/LM609 blocking studies,did not inhibit Cyr61 binding to αVβ3
same,concentration inhibiting Cyr61 adhesion to fibroblasts,fibroblasts [5],≥ 25 µM
same,tubule formation in matrigel,endothelial cells [6],inhibited tubule formation
same,adhesion of endothelial cells to immobilized peptide or fusion,endothelial cells [7],supported adhesion of endothelial cells and fibroblasts
same,adhesion of fibroblasts to immobilized peptide or fusion,fibroblasts [8],supported adhesion of endothelial cells and fibroblasts
heparin,levels having no effect on cell adhesion to fibronectin,[2]; fibronectin 1 μg/ml,up to 1000 μg/ml
same,level completely inhibiting cell adhesion to Cyr61,"[2]; soluble, in cell suspension",≥ 0.1 µg/mL
same,level that detectably inhibited binding to Cyr61,"[2]; soluble, in cell suspension",1 ng/mL
same,effect of agent on Cyr61-induced BASM cell adhesion,[9],inhibited Cyr61-induced adhesion
same,increase of chondrogenesis in micromass cultures,Limb mesenchymal cells [10],2 fold
